Converted amounts (≈) assume the structure as drawn.
Assays:
Format in all cases: functional
[1] = system: Acinetobacter baumannii; test: Antimicrobial activity against Acinetobacter baumannii ATCC 19606 assessed as inhibition of visible bacterial growth incubated for 18 hrs by broth microdilution method
[2] = system: Escherichia coli; test: Antimicrobial activity against Escherichia coli ATCC 25922 assessed as inhibition of visible bacterial growth incubated for 18 hrs by broth microdilution method
[3] = system: Klebsiella pneumoniae; test: Antimicrobial activity against Klebsiella pneumoniae ATCC 700603 assessed as inhibition of visible bacterial growth incubated for 18 hrs by broth microdilution method
[4] = system: Pseudomonas aeruginosa; test: Antimicrobial activity against Pseudomonas aeruginosa ATCC 27853 assessed as inhibition of visible bacterial growth incubated for 18 hrs by broth microdilution method
[5] = system: Bacillus subtilis; test: Antimicrobial activity against Bacillus subtilis ATCC 23857 assessed as inhibition of visible bacterial growth incubated for 18 hrs by broth microdilution method
[6] = system: Staphylococcus epidermidis; test: Antimicrobial activity against Staphylococcus epidermidis ATCC 12228 assessed as inhibition of visible bacterial growth incubated for 18 hrs by broth-dilution method
[7] = system: Staphylococcus aureus; test: Antimicrobial activity against Staphylococcus aureus ATCC 25923 assessed as inhibition of visible bacterial growth incubated for 18 hrs by broth-dilution method
[8] = system: Enterococcus faecalis; test: Antimicrobial activity against Enterococcus faecalis ATCC 29212 assessed as inhibition of visible bacterial growth incubated for 18 hrs by broth-dilution method
[9] = system: Pseudomonas aeruginosa; test: Resistance fold, ratio of MIC for Pseudomonas aeruginosa ATCC 27853 measured after 10th passage to MIC for Pseudomonas aeruginosa ATCC 27853 measured immediately
[10] = system: Staphylococcus aureus; test: Resistance fold, ratio of MIC for Staphylococcus aureus ATCC 25923 measured after 8th passage to MIC for Staphylococcus aureus ATCC 25923 measured immediately
[11] = system: Pseudomonas aeruginosa; test: Antimicrobial activity against gentamicin-resistant Pseudomonas aeruginosa ATCC 27853 assessed as inhibition of visible bacterial growth incubated for 18 hrs by broth microdilution method
[12] = system: Staphylococcus aureus; test: Antimicrobial activity against gentamicin-resistant Staphylococcus aureus ATCC 25923 assessed as inhibition of visible bacterial growth incubated for 18 hrs by broth-dilution method

Question: `CN[C@@H]1[C@@H](O)[C@@H](O[C@@H]2[C@@H](O)[C@H](O[C@H]3O[C@H]([C@@H](C)NC)CC[C@H]3N)[C@@H](N)C[C@H]2N)OC[C@]1(C)O` [GENTAMICIN C1] was tested. Which MIC [1] did it give?
Answer: 16 µM (≈ 7.64 µg/mL)

Question: And the MIC [2]?
Answer: 2 µM (≈ 0.955 µg/mL)

Question: What about the MIC [3] of the same molecule?
Answer: 16 µM (≈ 7.64 µg/mL)

Question: What about the MIC [4] of the same molecule?
Answer: < 1 µM

Question: What about the MIC [5] of the same molecule?
Answer: < 1 µM

Question: What about the MIC [6] of the same molecule?
Answer: < 1 µM

Question: And the MIC [7]?
Answer: < 1 µM

Question: What about the MIC [8] of the same molecule?
Answer: 16 µM (≈ 7.64 µg/mL)

Question: What about the “fold change (FC)” value [9] of the same molecule?
Answer: 32

Question: What about the “fold change (FC)” value [10] of the same molecule?
Answer: 32

Question: What about the MIC [11] of the same molecule?
Answer: 64 µM (≈ 30.6 µg/mL)

Question: And the MIC [12]?
Answer: 32 µM (≈ 15.3 µg/mL)
